Measurements taken from ChEMBL document CHEMBL4265969, “Design, synthesis and biological evaluation of (2S,3R,4R,5S,6R)-5-fluoro-6-(hydroxymethyl)-2-aryltetrahydro-2H-pyran-3,4-diols as potent and orally active SGLT dual inhibitors” (Bioorg Med Chem Lett, 2018).

Test system: not listed separately
Test: Metabolic stability in mouse liver microsomes at 1 uM after 10 mins in presence of NADPH
Type: ADME, microsome
Conditions: read-out: Stability
Molecule OC[C@H]1O[C@@H](c2cc(Cc3ccc4c(c3)OCCO4)c3c(c2O)CCO3)[C@H](O)[C@@H](O)[C@@H]1F has a remaining at 10 min, 1 µM of 97%.

Test system: not listed separately
Test: Volume of distribution at steady state in Sprague-Dawley rat at 2 mg/kg, iv
Type: ADME, organism-based
Conditions: in vivo, read-out: Vdss
In the case of OC[C@H]1O[C@@H](c2cc(Cc3ccc4c(c3)OCCO4)c3c(c2O)CCO3)[C@H](O)[C@@H](O)[C@@H]1F, the Vd is reported as 1.22 L/kg.

Biological target: T1, Sodium/glucose cotransporter 2 (Homo sapiens) (UniProt P31639)
T1 sequence (whole entry): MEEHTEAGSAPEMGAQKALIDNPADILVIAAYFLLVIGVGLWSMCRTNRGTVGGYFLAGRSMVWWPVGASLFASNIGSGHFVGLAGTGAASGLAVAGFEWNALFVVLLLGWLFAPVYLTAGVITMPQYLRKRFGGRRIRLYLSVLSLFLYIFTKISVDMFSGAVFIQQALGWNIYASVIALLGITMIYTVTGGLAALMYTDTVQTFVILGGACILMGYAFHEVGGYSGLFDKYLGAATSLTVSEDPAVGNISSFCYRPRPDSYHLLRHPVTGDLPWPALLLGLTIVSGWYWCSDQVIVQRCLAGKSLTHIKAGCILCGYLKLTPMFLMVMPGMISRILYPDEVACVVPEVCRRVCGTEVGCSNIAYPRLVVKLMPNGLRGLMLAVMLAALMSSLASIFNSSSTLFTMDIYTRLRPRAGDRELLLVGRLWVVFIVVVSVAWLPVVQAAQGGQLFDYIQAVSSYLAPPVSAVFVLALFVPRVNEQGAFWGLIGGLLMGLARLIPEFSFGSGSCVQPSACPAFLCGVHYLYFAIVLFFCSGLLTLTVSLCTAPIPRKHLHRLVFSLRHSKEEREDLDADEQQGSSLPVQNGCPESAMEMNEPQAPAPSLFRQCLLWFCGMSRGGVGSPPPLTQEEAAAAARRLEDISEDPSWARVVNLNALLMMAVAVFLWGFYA
Test: Inhibition of human kidneyl SGLT2 expressed in CHOK1 cells assessed as reduction in Na-dependent [14C]-AMG uptake at 0.3 uM preincubated for 10 mins followed by [14C]-AMG addition measured after 2 hrs by TopCount method relative to control
Type: cell-based
Conditions: not given
OC[C@H]1O[C@@H](c2cc(Cc3ccc4c(c3)OCCO4)c(O)c3c2OCC3)[C@H](O)[C@@H](O)[C@@H]1F showed an inhibition of 26%.
In the case of Cc1ccc([C@@H]2O[C@H](CO)[C@@H](F)[C@H](O)[C@H]2O)cc1Cc1cc2c(s1)CCN(C(=O)c1nccs1)C2, the inhibition is reported as 73%.
Molecule Cc1ccc([C@@H]2O[C@H](CO)[C@@H](F)[C@H](O)[C@H]2O)cc1Cc1cc2c(s1)CCN(C#N)C2 has an inhibition of 76%.
Molecule Cc1ccc([C@@H]2O[C@H](CO)[C@@H](F)[C@H](O)[C@H]2O)cc1Cc1cc2c(s1)CCN(C(=O)C1CCCC1)C2 has an inhibition of 59%.

Test system: not listed separately
Test: Tmax in Sprague-Dawley rat at 10 mg/kg, po
Type: ADME, organism-based
Conditions: in vivo
In the case of OC[C@H]1O[C@@H](c2cc(Cc3ccc4c(c3)OCCO4)c3c(c2O)CCO3)[C@H](O)[C@@H](O)[C@@H]1F, the Tmax is reported as 15 min.

Test system: not listed separately
Test: AUC (0 to infinity) in Sprague-Dawley rat at 10 mg/kg, po
Type: ADME, organism-based
Design: dose 10 mg/kg, route oral, time infinity
Conditions: in vivo
Work on OC[C@H]1O[C@@H](c2cc(Cc3ccc4c(c3)OCCO4)c3c(c2O)CCO3)[C@H](O)[C@@H](O)[C@@H]1F yielded an AUC(0-inf) of 307 ng·h/mL.

Test system: not listed separately
Test: Metabolic stability in rat liver microsomes at 1 uM after 10 mins in presence of NADPH
Type: ADME, microsome
Conditions: read-out: Stability
OC[C@H]1O[C@@H](c2cc(Cc3ccc4c(c3)OCCO4)c3c(c2O)CCO3)[C@H](O)[C@@H](O)[C@@H]1F showed a remaining at 10 min, 1 µM of 64%.

Biological target: T2, SGLT1 (sodium/glucose cotransporter 1) (Homo sapiens, UniProt P13866)
T2 sequence (P13866 whole entry): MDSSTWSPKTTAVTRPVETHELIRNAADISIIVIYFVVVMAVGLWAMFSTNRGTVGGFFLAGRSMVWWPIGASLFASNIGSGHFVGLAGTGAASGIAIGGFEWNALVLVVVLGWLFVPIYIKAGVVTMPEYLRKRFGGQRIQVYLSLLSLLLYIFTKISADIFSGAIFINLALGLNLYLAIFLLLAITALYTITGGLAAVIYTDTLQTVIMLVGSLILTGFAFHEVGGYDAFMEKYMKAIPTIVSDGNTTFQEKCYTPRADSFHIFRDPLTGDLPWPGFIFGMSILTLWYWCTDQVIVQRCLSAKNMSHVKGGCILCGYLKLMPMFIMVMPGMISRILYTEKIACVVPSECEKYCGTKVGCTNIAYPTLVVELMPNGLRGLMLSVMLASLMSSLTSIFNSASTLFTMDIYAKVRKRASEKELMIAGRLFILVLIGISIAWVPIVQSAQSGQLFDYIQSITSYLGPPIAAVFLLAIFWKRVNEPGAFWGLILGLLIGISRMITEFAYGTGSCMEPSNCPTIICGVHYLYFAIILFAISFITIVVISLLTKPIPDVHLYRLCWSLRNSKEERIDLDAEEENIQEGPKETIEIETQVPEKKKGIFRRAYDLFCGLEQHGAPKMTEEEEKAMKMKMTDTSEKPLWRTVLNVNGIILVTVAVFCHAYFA
Test: Inhibition of human small intestinal SGLT1 expressed in CHOK1 cells assessed as reduction in Na-dependent [14C]-AMG uptake at 0.3 uM preincubated for 10 mins followed by [14C]-AMG addition measured after 2 hrs by TopCount method relative to control
Type: cell-based
Conditions: CHO-K1 cells expressing human SGLT1, probe [14C]-AMG
For OC[C@H]1O[C@@H](c2cc(Cc3ccc4c(c3)OCCO4)c(O)c3c2OCC3)[C@H](O)[C@@H](O)[C@@H]1F, the inhibition at 2 h, 0.3 µM was 31%.
Molecule Cc1ccc([C@@H]2O[C@H](CO)[C@@H](F)[C@H](O)[C@H]2O)cc1Cc1cc2c(s1)CCN(C(=O)c1nccs1)C2 has an inhibition at 2 h, 0.3 µM of 39%.
In the case of Cc1ccc([C@@H]2O[C@H](CO)[C@@H](F)[C@H](O)[C@H]2O)cc1Cc1cc2c(s1)CCN(C(=O)C1CCCC1)C2, the inhibition at 2 h, 0.3 µM is reported as 49%.

Test system: not listed separately
Test: Clearance in Sprague-Dawley rat at 2 mg/kg, iv
Type: ADME, organism-based
Conditions: in vivo
OC[C@H]1O[C@@H](c2cc(Cc3ccc4c(c3)OCCO4)c3c(c2O)CCO3)[C@H](O)[C@@H](O)[C@@H]1F gave a clearance of 28.1 mL/min/kg.

Test system: not listed separately
Test: Half life in monkey hepatocytes at 1 uM
Type: ADME, cell-based, Macaca mulatta, Hepatocyte
Conditions: rhesus monkey
In the case of Cc1ncc2n1-c1ccc(Cl)cc1C(c1ccccc1F)=NC2 [MIDAZOLAM], the half-life at 1 µM is reported as 84 min.

Biological target: T3, Sodium/glucose cotransporter 2 (Homo sapiens, UniProt P31639)
T3 sequence (P31639 whole entry): T1 sequence (whole entry)
Test: Inhibition of human kidneyl SGLT2 expressed in CHOK1 cells assessed as reduction in Na-dependent [14C]-AMG uptake preincubated for 10 mins followed by [14C]-AMG addition measured after 2 hrs by TopCount method
Type: cell-based
Conditions: not given
In the case of COc1cc(C)c(Cc2cc3c(s2)CCN(C#N)C3)cc1[C@@H]1O[C@H](CO)[C@@H](F)[C@H](O)[C@H]1O, the IC50 is reported as 5.3 nM.

Test system: not listed separately
Test: Cmax in Sprague-Dawley rat at 10 mg/kg, po
Type: ADME, organism-based
Design: dose 10 mg/kg, route oral
Conditions: in vivo
OC[C@H]1O[C@@H](c2cc(Cc3ccc4c(c3)OCCO4)c3c(c2O)CCO3)[C@H](O)[C@@H](O)[C@@H]1F showed a Cmax of 168 ng/mL.

Test system: not listed separately
Test: Half life in human hepatocytes at 1 uM
Type: ADME, cell-based, Hepatocyte
Conditions: not given
Work on Cc1ncc2n1-c1ccc(Cl)cc1C(c1ccccc1F)=NC2 [MIDAZOLAM] yielded a half-life at 1 µM of 60 min.

Test system: not listed separately
Test: Metabolic stability in human liver microsomes at 1 uM after 10 mins in presence of NADPH
Type: ADME, microsome
Conditions: read-out: Stability
Work on OC[C@H]1O[C@@H](c2cc(Cc3ccc4c(c3)OCCO4)c3c(c2O)CCO3)[C@H](O)[C@@H](O)[C@@H]1F yielded a remaining at 10 min, 1 µM of 97%.

Test system: not listed separately
Test: Half life in Sprague-Dawley rat at 2 mg/kg, iv
Type: ADME, organism-based
Conditions: in vivo
For OC[C@H]1O[C@@H](c2cc(Cc3ccc4c(c3)OCCO4)c3c(c2O)CCO3)[C@H](O)[C@@H](O)[C@@H]1F, the half-life was 18.6 min.

Test system: not listed separately
Test: Oral bioavailability in Sprague-Dawley rat at 10 mg/kg
Type: ADME, organism-based
Conditions: in vivo
OC[C@H]1O[C@@H](c2cc(Cc3ccc4c(c3)OCCO4)c3c(c2O)CCO3)[C@H](O)[C@@H](O)[C@@H]1F gave a bioavailability of 4%.
